The species named for the experiment is Rattus norvegicus. Briefly: Tested in vitro for growth hormone release in rat pituitary cells. Format: functional. The settings on record: Pituitary gland cell, read-out: ED50 (the source's name).

In the case of `CC(C)(N)CC(=O)N[C@@H]1CCc2ccccc2N(Cc2ccc(-c3ccccc3C(=O)NCCCCCO)cc2)C1=O`, the EC50 is 0.01 µM. Take `CCN(CC)C(=O)c1ccccc1-c1ccc(CN2C(=O)[C@H](NC(=O)CC(C)(C)N)CCc3ccccc32)cc1`: the EC50 worked out at 2 µM. As to `CC(C)(N)CC(=O)N[C@@H]1CCc2ccccc2N(Cc2ccc(-c3ccccc3C(=O)NCc3ccc(O)cc3)cc2)C1=O`, the EC50 amounted to 0.3 µM. Turning to `CC(C)(N)CC(=O)N[C@@H]1CCc2ccccc2N(Cc2ccc(-c3ccccc3C(=O)NCCCCO)cc2)C1=O`, the EC50 was found to be 0.01 µM. Turning to `COc1ccc(CNC(=O)c2ccccc2-c2ccc(CN3C(=O)[C@H](NC(=O)CC(C)(C)N)CCc4ccccc43)cc2)cc1`, the EC50 worked out at 2 µM. The result for `CC(C)(N)CC(=O)N[C@@H]1CCc2ccccc2N(Cc2ccc(-c3ccccc3C(=O)NCCO)cc2)C1=O` reads 3 µM; that for `CC(C)(N)CC(=O)N[C@@H]1CCc2ccccc2N(Cc2ccc(-c3ccccc3-c3nn[nH]n3)cc2)C1=O`, 0.06 µM; that for `CC(C)(N)CC(=O)N[C@@H]1CCc2ccccc2N(Cc2ccc(-c3ccccc3C(=O)NCc3ccccc3)cc2)C1=O`, 0.9 µM. The same measure for `CCNC(=O)c1ccccc1-c1ccc(CN2C(=O)[C@H](NC(=O)CC(C)(C)N)CCc3ccccc32)cc1`: 0.09 µM; for `CCCCCNC(=O)c1ccccc1-c1ccc(CN2C(=O)[C@H](NC(=O)CC(C)(C)N)CCc3ccccc32)cc1`: > 1 µM. For `CC(C)(N)CC(=O)N[C@@H]1CCc2ccccc2N(Cc2ccc(-c3ccccc3C(N)=O)cc2)C1=O`, the EC50 came out at 0.08 µM.

`CC(C)(CC(=O)N[C@@H]1CCc2ccccc2N(Cc2ccc(-c3ccccc3C(N)=O)cc2)C1=O)NC[C@H](O)CO`: the EC50 is 0.003 µM.

Turning to `CC(C)(N)CC(=O)N[C@@H]1CCc2ccccc2N(Cc2ccc(-c3ccccc3C(=O)NCCCO)cc2)C1=O`, the EC50 amounted to 0.4 µM.

Turning to `CC(C)(CC(=O)N[C@@H]1CCc2ccccc2N(Cc2ccc(-c3ccccc3-c3nn[nH]n3)cc2)C1=O)NC[C@H](O)CO`, the EC50 is 0.01 µM. As to `C[C@@H](O)CNC(C)(C)CC(=O)N[C@@H]1CCc2ccccc2N(Cc2ccc(-c3ccccc3C(N)=O)cc2)C1=O`, the EC50 came to 0.004 µM. The same measure for `C[C@@H](O)CNC(C)(C)CC(=O)N[C@@H]1CCc2ccccc2N(Cc2ccc(-c3ccccc3-c3nn[nH]n3)cc2)C1=O` [L-692585]: 0.003 µM.

Values taken from ChEMBL document CHEMBL1127977, “Benzolactam growth hormone secretagogues: Carboxamides as replacements for the 2-tetrazole moiety of L-692,429” (1994).
